According to patent publication US20110021565A1, “PIPERIDINE DERIVATIVES AS NK3 ANTAGONISTS” (priority 2007, published 2011):
pKi: −log10 of the molar value.

What follows are compounds tested against T1, recombinant human NK3 receptor (Homo sapiens, UniProt P29371) (assay: [3H]SR142801 competition binding assay). Conditions: [3H]SR142801, membranes of HEK293 cells transiently expressing recombinant human NK3 receptor; read-out: hNK3 Ki.
T1 construct: expressed in transfected cells; host or cells: HEK293 cells, transient expression; membrane preparation
T1 sequence (P29371 1-465): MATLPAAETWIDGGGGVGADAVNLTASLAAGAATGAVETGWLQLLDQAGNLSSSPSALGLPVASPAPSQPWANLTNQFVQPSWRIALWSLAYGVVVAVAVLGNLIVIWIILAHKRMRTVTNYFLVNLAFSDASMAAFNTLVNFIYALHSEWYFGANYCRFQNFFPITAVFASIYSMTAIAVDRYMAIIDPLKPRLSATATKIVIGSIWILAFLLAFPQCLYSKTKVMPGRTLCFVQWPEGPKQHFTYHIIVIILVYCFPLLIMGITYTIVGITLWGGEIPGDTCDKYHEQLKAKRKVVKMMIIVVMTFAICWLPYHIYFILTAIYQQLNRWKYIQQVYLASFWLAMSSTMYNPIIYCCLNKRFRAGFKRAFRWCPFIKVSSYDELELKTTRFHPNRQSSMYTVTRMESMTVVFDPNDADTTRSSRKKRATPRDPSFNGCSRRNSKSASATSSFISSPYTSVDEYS
Procedure, shortened: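 Membranes from HEK293 cells transiently expressing the receptor (5 μg protein/well) incubated 75 min at RT with [3H]SR142801 at its KD and 10 compound concentrations (0.0003-10 μM), in pH 7.4 Tris buffer with MnCl2, phosphoramidon and BSA. Nonspecific binding defined with 10 μM SB222200; bound radioactivity counted after filtration. Ki from IC50 via Cheng-Prusoff; duplicates.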

Compound | pKi
CC(CCN1CCC(NS(C)(=O)=O)CC1)(C(=O)NCc1cccc(OC(F)F)c1)c1ccc(Cl)c(Cl)c1 (stereo not drawn) [Example 12, 2-(3,4-Dichloro-phenyl)-N-(3-difluoromethoxy-benzyl)-4-(4-methanesulfonyl-amino-piperidin-1-yl)-2-methyl-butyramide] | 6.51
CC(CCN1CCC(NS(C)(=O)=O)CC1)(C(=O)NCc1cc(F)ccc1C(F)(F)F)c1ccc(Cl)c(Cl)c1 (stereo not drawn) [Example 13, 2-(3,4-Dichloro-phenyl)-N-(5-fluoro-2-trifluoromethyl-benzyl)-4-(4-methanesulfonyl-amino-piperidin-1-yl)-2-methyl-butyramide] | 6.24
CC(NC(=O)C(C)(CCN1CCC(NS(C)(=O)=O)CC1)c1ccc(Cl)c(Cl)c1)c1ccc(Cl)cc1 (stereo not drawn) [Example 16, N-[1-(4-Chloro-phenyl)-ethyl]-2-(3,4-dichloro-phenyl)-4-(4-methanesulfonyl-amino-piperidin-1-yl)-2-methyl-butyramide] | 6.76
COc1cccc(CN(C)C(=O)C(C)(CCN2CCC(NS(C)(=O)=O)CC2)c2ccc(Cl)c(Cl)c2)c1 (stereo not drawn) [Example 17, 2-(3,4-Dichloro-phenyl)-4-(4-methanesulfonyl-amino-piperidin-1-yl)-N-(3-methoxy-benzyl)-2,N-dimethyl-butyramide] | 6.67
CN(Cc1ccc(-c2ccncc2)cc1)C(=O)C(C)(CCN1CCC(NS(C)(=O)=O)CC1)c1ccc(Cl)c(Cl)c1 (stereo not drawn) [Example 20, 2-(3,4-Dichloro-phenyl)-4-(4-methanesulfonyl-amino-piperidin-1-yl)-2,N-dimethyl-N-(4-pyridin-4-yl-benzyl)-butyramide] | 6.69

Stronger by pKi, values ahead:

pKi | Compound
7.62 | CN(Cc1ccc(Cl)c(Cl)c1)C(=O)C(C)(CCN1CCC(NS(C)(=O)=O)CC1)c1ccc(Cl)c(Cl)c1 (stereo not drawn) [Example 10, N-(3,4-Dichloro-benzyl)-2-(3,4-dichloro-phenyl)-4-(4-methanesulfonyl-amino-piperidin-1-yl)-2,N-dimethyl-butyramide]
7.35 | CC(CCN1CCC(NS(C)(=O)=O)CC1)(C(=O)NCc1ccc(Cl)c(Cl)c1)c1ccc(Cl)c(Cl)c1 (stereo not drawn) [Example 11, N-(3,4-Dichloro-benzyl)-2-(3,4-dichloro-phenyl)-4-(4-methanesulfonyl-amino-piperidin-1-yl)-2-methyl-butyramide]
7.24 | CC(CCN1CCC(NS(C)(=O)=O)CC1)(C(=O)NCc1ccc(C(F)(F)F)cc1)c1ccc(Cl)c(Cl)c1 (stereo not drawn) [Example 14, 2-(3,4-Dichloro-phenyl)-4-(4-methanesulfonyl-amino-piperidin-1-yl)-2-methyl-N-(4-trifluoromethyl-benzyl)-butyramide]
6.78 | CC(CCN1CCC(NS(C)(=O)=O)CC1)(C(=O)NCc1cc(C(F)(F)F)ccc1F)c1ccc(Cl)c(Cl)c1 (stereo not drawn) [Example 15, 2-(3,4-Dichloro-phenyl)-N-(2-fluoro-5-trifluoromethyl-benzyl)-4-(4-methanesulfonyl-amino-piperidin-1-yl)-2-methyl-butyramide]
7.48 | CN(Cc1ccccc1Cl)C(=O)C(C)(CCN1CCC(NS(C)(=O)=O)CC1)c1ccc(Cl)c(Cl)c1 (stereo not drawn) [Example 18, N-(2-Chloro-benzyl)-2-(3,4-dichloro-phenyl)-4-(4-methanesulfonyl-amino-piperidin-1-yl)-2,N-dimethyl-butyramide]
7.22 | CC(NC(=O)C(C)(CCN1CCC(NS(C)(=O)=O)CC1)c1ccc(Cl)c(Cl)c1)c1ccc(Cl)c(Cl)c1 (stereo not drawn) [Example 19, 2-(3,4-Dichloro-phenyl)-N-[1-(3,4-dichloro-phenyl)-ethyl]-4-(4-methanesulfonyl-amino-piperidin-1-yl)-2-methyl-butyramide]
6.83 | CC(CCN1CCC(NS(C)(=O)=O)CC1)(C(=O)NCc1cccc(OC(F)(F)F)c1)c1ccc(Cl)c(Cl)c1 (stereo not drawn) [Example 21, 2-(3,4-Dichloro-phenyl)-4-(4-methanesulfonyl-amino-piperidin-1-yl)-2-methyl-N-(3-trifluoromethoxy-benzyl)-butyramide]
